# Measurements taken from patent publication US20240124466A1, “COMPOUNDS AND USE THEREOF FOR TREATMENT OF NEURODEGENERATIVE, DEGENERATIVE AND METABOLIC DISORDERS” (VOVA IDA THERAPEUTICS, INC., priority 2020, published 2024).
# Test system: PK1 neuroblastoma cells exposed to TPrP
# Assay: cells
# Conditions: Neuroblastoma cell, 96 h, read-out: TPrP EC50
row,Structure (SMILES),EC50
1,"Cc1ccc(-c2nnc(-c3ccccc3)[nH]2)cc1S(=O)(=O)N1CCC2(CC1)OCCCO2 [SR-32744, 9-((2-Methyl-5-(5-phenyl-4H-1,2,4-triazol-3-yl)phenyl)sulfonyl)-1,5-dioxa-9-azaspiro[5.5]undecane]",> 1500 nM
2,"Cc1ccc(-c2nnc(-c3ccccc3)[nH]2)cc1S(=O)(=O)NC(C)(C)CO [SR-32184, N-(1-hydroxy-2-methylpropan-2-yl)-2-methyl-5-(5-phenyl-4H-1,2,4-triazol-3-yl)benzenesulfonamide]",180 nM
3,Cc1ccc(-c2n[nH]c(-c3ccccc3)n2)cc1S(=O)(=O)N1CCOCC1 [SR-25604-2],40 nM
4,"Cc1ccc(-c2nnc(-c3ccccc3)[nH]2)cc1S(=O)(=O)N1CCN(CCNC(=O)OC(C)(C)C)CC1 [SR-34024, tert-Butyl (2-(4-((2-methyl-5-(5-phenyl-4H-1,2,4-triazol-3-yl)phenyl)sulfonyl)piperazin-1-yl)ethyl)carbamate]",~1500 nM
5,"O=S(=O)(c1ccc(-c2nnc(-c3ccccc3)[nH]2)cc1C(F)(F)F)N1CCOCC1 [SR-26444, 4-((4-(5-Phenyl-4H-1,2,4-triazol-3-yl)-2-(trifluoromethyl)phenyl)sulfonyl) morpholine]",> 320 nM
6,"Cc1ccc(-c2nnc(-c3ccccc3)s2)cc1S(=O)(=O)N1CCOCC1 [SR-27524, 4-((2-Methyl-5-(5-phenyl-1,3,4-thiadiazol-2-yl)phenyl)sulfonyl)morpholine]",180 nM
7,"Cc1ccc(-c2cccc3[nH]ncc23)cc1S(=O)(=O)N1CCOCC1 [SR-27484, 4-((5-(1H-Indazol-4-yl)-2-methylphenyl)sulfonyl)morpholine]",> 320 nM
8,"C=CCN1C[C@H](C)N(S(=O)(=O)c2cc(-c3ccnc(Cl)c3)ccc2C)C[C@H]1C (relative stereo) [SR-35465, (trans)-1-allyl-4-((5-(2-chloropyridin-4-yl)-2-methylphenyl)sulfonyl)-2,5-dimethylpiperazine]",> 1500 nM
9,"Cc1ccc(-c2nnc(-c3ccccc3)[nH]2)cc1S(=O)(=O)NCc1ccccn1 [SR-32144, 2-Methyl-5-(5-phenyl-4H-1,2,4-triazol-3-yl)-N-(pyridin-2-ylmethyl)benzene sulfonamide]",> 1500 nM
10,"Cc1ccc(-c2nnc(-c3ccccc3)[nH]2)cc1S(=O)(=O)N1CCN(CCc2ccncc2)CC1 [SR-33364, 1-((2-Methyl-5-(5-phenyl-4H-1,2,4-triazol-3-yl)phenyl)sulfonyl)-4-(2-(pyridin-4-yl)ethyl)piperazine]",5 nM
11,"Cc1ccc(-c2nnc(-c3ccccc3)[nH]2)cc1S(=O)(=O)N1C[C@H]2COC[C@H]2C1 [SR-32404, (3aR,6aS)-5-((2-Methyl-5-(5-phenyl-4H-1,2,4-triazol-3-yl)phenyl)sulfonyl) hexahydro-1H-furo[3,4-c]pyrrole]",800 nM
12,"COc1ccc(-c2nnc(-c3ccc(C)c(S(=O)(=O)N4CCOCC4)c3)[nH]2)cc1 [SR-28104, 4-((5-(5-(4-Methoxyphenyl)-4H-1,2,4-triazol-3-yl)-2-methylphenyl)sulfonyl) morpholine]",15 nM
13,"Cc1ccc(-c2nnc(-c3ccccc3)[nH]2)cc1S(=O)(=O)N1CC(O)C1 [SR-32944, 1-((2-Methyl-5-(5-phenyl-4H-1,2,4-triazol-3-yl)phenyl)sulfonyl)azetidin-3-ol]",15 nM
14,"Cc1ccc(-c2nnc(-c3ccccc3)[nH]2)cc1C(=O)N1CCOCC1 [SR-32044, (2-Methyl-5-(5-phenyl-4H-1,2,4-triazol-3-yl)phenyl)(morpholino)methanone]",~1500 nM
15,"Cc1ccc(-c2nnc(-c3ccccc3)o2)cc1S(=O)(=O)N1CCOCC1 [SR-27558, 4-((2-Methyl-5-(5-phenyl-1,3,4-oxadiazol-2-yl)phenyl)sulfonyl)morpholine]",140 nM
16,"Cc1cc(F)c(-c2ccnc(Cl)c2)cc1S(=O)(=O)N1CCN(CCO)CC1 [SR-35015, 2-(4-((5-(2-Chloropyridin-4-yl)-4-fluoro-2-methylphenyl)sulfonyl)piperazin-1-yl)ethan-1-ol]",50 nM
17,"Cc1ccc(-c2nnc(-c3ccccc3)[nH]2)cc1S(=O)(=O)N1CCC(O)C1 (stereo not drawn) [SR-32284, 1-((2-Methyl-5-(5-phenyl-4H-1,2,4-triazol-3-yl)phenyl)sulfonyl)pyrrolidin-3-ol]",550 nM
18,"Cc1ccc(-c2nnc(-c3ccncc3)[nH]2)cc1S(=O)(=O)N1CCOCC1 [SR-28224, 4-((2-Methyl-5-(5-(pyridin-4-yl)-4H-1,2,4-triazol-3-yl)phenyl)sulfonyl) morpholine]",18 nM
19,"CC(=O)N1CCN(CCn2cc(-c3ccc(C)c(S(=O)(=O)N4CCOCC4)c3)cn2)CC1 [SR-25484, 1-(4-(2-(4-(4-Methyl-3-(morpholinosulfonyl)phenyl)-1H-pyrazol-1-yl)ethyl)piperazin-1-yl)ethan-1-one]",140 nM
20,"Cc1ccc(-c2csc(-c3ccccc3)c2)cc1S(=O)(=O)N1CCOCC1 [SR-29184, 4-((2-Methyl-5-(5-phenylthiophen-3-yl)phenyl)sulfonyl)morpholine]",> 1200 nM
21,"Cc1ccc(-c2nnc(-c3ccccc3)[nH]2)cc1S(=O)(=O)NCCN1CCOCC1 [SR-31824, 2-Methyl-N-(2-morpholinoethyl)-5-(5-phenyl-4H-1,2,4-triazol-3-yl)benzene sulfonamide]",> 1500 nM

row,Structure (SMILES),EC50
1,"CC(=O)NCCNc1cc(-c2ccc(C)c(S(=O)(=O)N3CCOCC3)c2)ccn1 [SR-25104, N-(2-((4-(4-methyl-3-(morpholinosulfonyl)phenyl)pyridin-2-yl)amino)ethyl) acetamide]",100 nM
2,"Cc1ccc(-c2ccnc(Cl)c2)cc1S(=O)(=O)N1CCN(CCCO)CC1 [SR-35129, 3-(4-((5-(2-Chloropyridin-4-yl)-2-methylphenyl)sulfonyl)piperazin-1-yl)propan-1-ol]",> 1500 nM
3,"Cc1cc(C)c(S(=O)(=O)N2CCN(CCO)CC2)cc1-c1ccnc(Cl)c1 [SR-34951, 2-(4-((5-(2-Chloropyridin-4-yl)-2,4-dimethylphenyl)sulfonyl)piperazin-1-yl)ethan-1-ol]",90 nM
4,"Cc1ccc(-c2nc3ccccn3n2)cc1S(=O)(=O)N1CCOCC1 [SR-26524, 4-((5-([1,2,4]Triazolo[1,5-a]pyridin-2-yl)-2-methylphenyl)sulfonyl) morpholine]",50 nM
5,"Cc1ccc(-c2nnc(-c3ccccc3)[nH]2)cc1S(=O)(=O)N1CCC(O)(c2ccccc2)CC1 [SR-32784, 1-((2-Methyl-5-(5-phenyl-4H-1,2,4-triazol-3-yl)phenyl)sulfonyl)-4-phenyl piperidin-4-ol]",> 1500 nM
6,"Cc1ccc(-c2coc(-c3ccccc3)c2)cc1S(=O)(=O)N1CCOCC1 [SR-29044, 4-((2-Methyl-5-(5-phenylfuran-3-yl)phenyl)sulfonyl)morpholine]",> 1200 nM
7,"Cc1ccc(-c2cnn(Cc3ccccc3)c2)cc1S(=O)(=O)N1CCOCC1 [SR-28764, 4-((5-(1-Benzyl-1H-pyrazol-4-yl)-2-methylphenyl)sulfonyl)morpholine]",150 nM
8,"Cc1ccc(-c2nnc(-c3ccccc3)[nH]2)cc1S(=O)(=O)NCc1cccnc1 [SR-31584, 2-Methyl-5-(5-phenyl-4H-1,2,4-triazol-3-yl)-N-(pyridin-3-ylmethyl)benzene sulfonamide]",90 nM
9,"Cc1ccc(-c2ccnc(Cl)c2)cc1S(=O)(=O)N1CCN(CC(C)O)CC1 (stereo not drawn) [SR-35464, 1-(4-((5-(2-Chloropyridin-4-yl)-2-methylphenyl)sulfonyl)piperazin-1-yl)propan-2-ol]",800 nM
10,"Cc1ccc(-c2ccnc(N3CCOCC3)c2)cc1S(=O)(=O)N1CC(O)C1 [SR-34464, 1-((2-Methyl-5-(2-morpholinopyridin-4-yl)phenyl)sulfonyl)azetidin-3-ol]",300 nM
11,"Cc1ccc(-c2nnc(-c3ccc(F)c(F)c3)[nH]2)cc1S(=O)(=O)N1CCOCC1 [SR-27984, 4-((5-(5-(3,4-Difluorophenyl)-4H-1,2,4-triazol-3-yl)-2-methylphenyl)sulfonyl) morpholine]",20 nM
12,"COCCN1CCN(S(=O)(=O)c2cc(-c3nnc(-c4ccccc4)[nH]3)ccc2C)CC1 [SR-34533, 1-(2-Methoxyethyl)-4-((2-methyl-5-(5-phenyl-4H-1,2,4-triazol-3-yl)phenyl)sulfonyl)piperazine]",> 1500 nM
13,"Cc1ccc(-c2nnc(-c3ccccc3)[nH]2)cc1S(=O)(=O)N1CCC2(CC1)OCc1ccccc12 [SR-32984, 1′-((2-Methyl-5-(5-phenyl-4H-1,2,4-triazol-3-yl)phenyl)sulfonyl)-3H-spiro[isobenzofuran-1,4′-piperidine]]",> 1500 nM
14,"Cc1ccc(-c2ccnc(-c3ccc(F)cc3)c2)cc1S(=O)(=O)N1CCOCC1 [SR-28924, 4-((5-(2-(4-Fluorophenyl)pyridin-4-yl)-2-methylphenyl)sulfonyl)morpholine]",40 nM
15,"Cc1ccc(-c2cnc3ccccn23)cc1S(=O)(=O)N1CCOCC1 [SR-27444, 4-((5-(Imidazo[1,2-a]pyridin-3-yl)-2-methylphenyl)sulfonyl)morpholine]",> 320 nM
16,"Cc1ccc(-c2nnc(-c3ccccc3)n2C)cc1S(=O)(=O)N1CCOCC1 [SR-28864, 4-((2-Methyl-5-(4-methyl-5-phenyl-4H-1,2,4-triazol-3-yl)phenyl)sulfonyl) morpholine]",> 1200 nM
17,"O=S(=O)(c1cc(-c2nnc(-c3ccccc3)[nH]2)ccc1C(F)(F)F)N1CCOCC1 [SR-28125, 4-((5-(5-Phenyl-4H-1,2,4-triazol-3-yl)-2-(trifluoromethyl)phenyl)sulfonyl) morpholine]",30 nM
18,"Cc1ccc(-c2nnc(-c3ccccc3)[nH]2)cc1S(=O)(=O)N1CCOCC1C (stereo not drawn) [SR-32286, 3-Methyl-4-((2-methyl-5-(5-phenyl-4H-1,2,4-triazol-3-yl)phenyl)sulfonyl) morpholine]",110 nM
19,"O=S(=O)(c1cc(-c2nnc(-c3ccccc3)[nH]2)ccn1)N1CCOCC1 [SR-28004, 4-((4-(5-Phenyl-4H-1,2,4-triazol-3-yl)pyridin-2-yl)sulfonyl)morpholine]",> 1200 nM
20,"Cc1ccc(-c2c(C)nn(C)c2C)cc1S(=O)(=O)N1CCOCC1 [SR-25584, 4-((2-Methyl-5-(1,3,5-trimethyl-1H-pyrazol-4-yl)phenyl)sulfonyl)morpholine]",> 320 nM
21,"Cc1ccc(-c2nnc(-c3ccccc3)[nH]2)cc1S(=O)(=O)N1CCOCC1CO (stereo not drawn) [SR-32945, (4-((2-Methyl-5-(5-phenyl-4H-1,2,4-triazol-3-yl)phenyl)sulfonyl)morpholin-3-yl)methanol]",300 nM
